PMC11121495, “Blap-6, a Novel Antifungal Peptide from the Chinese Medicinal Beetle Blaps rhynchopetera against Cryptococcus neoformans” (International Journal of Molecular Sciences, 2024)
Where no end group is shown, it is not given here.

Columns and labels:
A. baumannii = assay: microbe, parasite or virus in culture; type: cell-based, Acinetobacter baumannii (ATCC 1968)
Source text: (§1) These standard strains of Escherichia coli (E. coli, ATCC 8739), Staphylococcus aureus (S. aureus, ATCC 6538), Pseudomonas aeruginosa (P. aeruginosa, ATCC 27853), Acinetobacter baumannii (A. baumannii, ATCC 1968), Candida albicans (ATCC 10231), and the clinical strain of Methicillin-resistant Staphylococcus aureus (MRSA, MRSA-Z) were obtained from Kunming Medical University. The standard strain of C. neoformans (ATCC 32045) was purchased from Shanghai Yingxin Laboratory Co., Ltd. (CAS NO. YXJ50058). Different strains of E. coli, S. aureus, MRSA, P. aeruginosa, and A. baumannii were cultured with shaking at 37 °C in Luria–Bertani (LB) medium. C. neoformans was cultured at 35 °C in Sabouraud Dextrose Agar (SDA) medium according to the manufacturer’s instructions.
(§2) According to Clinical and Laboratory Standards Institute (CLSI) protocols, the minimum inhibitory concentration (MIC) is the minimum drug concentration at which antibiotics inhibit the growth and reproduction of strains. The different strains were grown in their corresponding media at 35 °C or 37 °C until they entered the exponential growth phase. Fluconazole and amphotericin B were used as positive controls, and sterile 0.9% NaCl was used as a negative control. The peptides were diluted to various concentrations in sterile saline. According to 1 OD = 1 × 10^9 CFU/mL, the above bacterial solution was diluted to 2 × 10^5 CFU/mL with the corresponding medium. In advance, 100 μL of normal saline was added to a sterile 96-well plate, and 200 μL of the sample to be tested was added to the first well. The sample to be tested was subjected to double gradient dilution, and then 100 μL of bacterial solution with a concentration of 2 × 10^5 was added to each well. It was cultured at 35 °C or 37 °C for different times. The light absorption value of the bacterial solution at 600 nm was detected by a microplate reader (Epoch Etock, Biotek, Winooski, VT, USA), and the average concentration of the samples in the pores and adjacent pores that could not detect microbial growth was used as the MIC value.

C. albicans = assay: microbe, parasite or virus in culture; type: cell-based, Candida albicans (ATCC 10231)
Source text: as §1, §2

C. neoformans = assay: microbe, parasite or virus in culture; type: cell-based, Cryptococcus neoformans (ATCC 32045)
Source text: as §1, §2

[1] = test system: C. neoformans ATCC 32045 biofilm; assay: Biofilm inhibition (crystal violet); type: cell-based, Cryptococcus neoformans; conditions: 1 × MIC, 48 h, 37 °C, A600, dose-dependent
Method: The single colony of C. neoformans ATCC 32045 was selected and cultured at 180 rpm and 37 °C. The physiological saline was washed three times and then re-suspended. The fungal concentration was adjusted to 1 × 10^6 CFU/mL, and then 100 μL of the fungal solution was added to each hole in the 96-well plate. The samples to be tested were diluted with sterile saline to 0.5×, 1×, 2×, 4×, and 8 × MIC, and 100 μL was added to the 96-well plate and mixed well. Three replicate wells were set for each concentration. The negative control group was added to the same volume of sterile saline. The positive control group was added with 10 μM fluconazole and amphotericin B, respectively, and the above group was incubated in a 37 °C incubator for 48 h. After that, the supernatant was discarded and washed with sterile PBS three times, 1 min each time. And then, 99% methanol was added and fixed for 5 min. After staining with 100 μL 0.1% crystal violet for 5 min, the plate was washed with PBS, and 100 μL 95% ethanol was added. The absorbance at 600 nm was detected by a microplate reader.

[2] = test system: C. neoformans ATCC 32045 cell membrane; assay: Membrane potential, DiSC3(5) staining; type: cell-based, Cryptococcus neoformans; conditions: 1 × MIC, 8 × MIC and 16 × MIC; DiSC3(5) 0.5 μM, ex/em 622/670 nm
Method: DiSC3(5) is a fluorescent probe often used as a tracer dye to assess the cell membrane potential. […] C. neoformans ATCC 32045 was selected for SDB medium and cultured in a constant-temperature shaker at 35 °C to the logarithmic phase. The supernatant was removed by centrifugation at 3500 rpm for 5 min, washed three times with normal saline, and then the fungal solution was diluted with normal saline containing 100 mM potassium chloride to an OD600 of about 0.1. […] The above-mixed suspension was added to a fluorescence-specific 96-well plate, 190 μL per well, and the excitation/emission wavelength was set at 622/670 nm, and a microplate reader was used for measurement. The measurement was performed until the microplate reader value was stable and then continued for 20 min. The experimental group was added with 10 μL blap-6 to make the final concentrations 16 × MIC, 8 × MIC, and 1 × MIC, respectively. The positive control group was added with 10 μL of valinomycin to a final concentration of 10 μM. The negative control was added to 10 μL of normal saline. Continue to measure for 60 min. Three replicates were set up in the experiment.

C. neoformans ATCC 32045 = assay: Transmission electron microscopy of treated cells; type: cell-based, Cryptococcus neoformans; conditions: 1 × MIC (0.81 μM), 12 h, 37 °C
Method: The suspension of C. neoformans ATCC 32045 was prepared and then centrifuged at 3500 rpm for 5 min. The supernatant was discarded, and sterile normal saline was added for washing. That is, the above operation was repeated three times and re-suspended. […] The positive control, including the concentration of fluconazole and amphotericin, was 1 × MIC. The negative control was added with the same volume of sterile normal saline. After the sample was added to the fungal solution, it was incubated in an incubator at 37 °C for 12 h, and then centrifuged at 1000 rpm for 10 min. The supernatant was discarded, and osmium tetroxide was slowly added along the tube wall for fixation and fixed at 4 °C for 3 h. Gradient ethanol was used for dehydration, infiltration, and embedding. Finally, ultrathin sections were performed. After the above operation, the morphological changes in C. neoformans were observed by TEM (Tecnai G2 Spirit, FEI, Eindhoven, Holland) and photographed.

Sequence: KRCRFRIYRWGFPRRRF [blap-6]
- MIC (A. baumannii): 19.54 µM
- MIC (C. albicans): 1.22 µM
- MIC (C. neoformans): 0.81 µM
- inhibition of biofilm formation [1]: significantly inhibited
- change of membrane potential [2]: deviations toward cell hyperpolarization in a dose-dependent manner
- cell morphology by TEM (C. neoformans ATCC 32045): severe disruption of the structural and cellular morphology
